{"source": "patent US9278962B2", "about": "(Cytokinetics, Inc., priority 2011, dated 2016)", "data": [{"tested_on": "rabbit skeletal myofibrils (approximately 90% fast fibers)", "assay": "Activation of fast skeletal myofibrils (PUMA coupled-enzyme ATPase assay, AC1.4)", "type": "biochemical", "settings": "Table 2; concentration at which the compound increased enzymatic activity by 40%; calcium at pCa25", "values": [{"smiles": "Fc1cccnc1C1(CNc2nsc(-c3ccccc3)n2)CCC1", "note": "[N-((1-(3-fluoropyridin-2-yl)cyclobutyl)methyl)-5-phenyl-1,2,4-thiadiazol-3-amine]", "Mean AC1.4": "D (D=>20 uM)"}, {"smiles": "CC(C)(CNc1nc(CCCNC(=O)CO)ns1)c1ccc(F)cc1", "note": "[N-[3-(5-{[2-(4-fluorophenyl)-2-methylpropyl]amino}(1,2,4-thiadiazol-3-yl))propyl]-2-hydroxyacetamide]", "Mean AC1.4": "B (B=1-10 uM)"}, {"smiles": "COC(=O)NCCCc1nsc(NCC(C)(C)c2ccc(F)cc2)n1", "note": "[N-[3-(5-{[2-(4-fluorophenyl)-2-methylpropyl]amino}(1,2,4-thiadiazol-3-yl))propyl]methoxycarboxamide]", "Mean AC1.4": "B (B=1-10 uM)"}, {"smiles": "CC(=O)NCCCc1nsc(NCC(C)(C)c2ccc(F)cc2)n1", "note": "[N-[3-(5-{[2-(4-fluorophenyl)-2-methylpropyl]amino}-1,2,4-thiadiazol-3-yl)propyl]acetamide]", "Mean AC1.4": "C (C=10-20 uM)"}, {"smiles": "CC(C)(CNc1nc(CNC(=O)CO)ns1)c1ccc(F)cc1", "note": "[N-[(5-{[2-(4-fluorophenyl)-2-methylpropyl]amino}(1,2,4-thiadiazol-3-yl))methyl]-2-hydroxyacetamide]", "Mean AC1.4": "B (B=1-10 uM)"}, {"smiles": "COC(=O)NCc1nsc(NCC(C)(C)c2ccc(F)cc2)n1", "note": "[N-[(5-{[2-(4-fluorophenyl)-2-methylpropyl]amino}(1,2,4-thiadiazol-3-yl))methyl]methoxycarboxamide]", "Mean AC1.4": "B (B=1-10 uM)"}, {"smiles": "CC(=O)NCc1nsc(NCC(C)(C)c2ccc(F)cc2)n1", "note": "[N-[(5-{[2-(4-fluorophenyl)-2-methylpropyl]amino}-1,2,4-thiadiazol-3-yl)methyl]acetamide]", "Mean AC1.4": "C (C=10-20 uM)"}, {"smiles": "COc1cccc(Cc2nsc(NCCc3ccc(Cl)cc3Cl)n2)c1", "note": "[[2-(2,4-dichlorophenyl)ethyl]{3-[(3-methoxyphenyl)methyl](1,2,4-thiadiazol-5-yl)}amine]", "Mean AC1.4": "C (C=10-20 uM)"}, {"smiles": "Cc1ccc(Cc2nsc(NCCc3ccc(Cl)cc3Cl)n2)cc1", "note": "[[2-(2,4-dichlorophenyl)ethyl]{3-[(4-methylphenyl)methyl](1,2,4-thiadiazol-5-yl)}amine]", "Mean AC1.4": "D (D=>20 uM)"}, {"smiles": "Cc1ccc(Cc2nsc(NCCc3c(Cl)cccc3Cl)n2)cc1", "note": "[[2-(2,6-dichlorophenyl)ethyl]{3-[(4-methylphenyl)methyl](1,2,4-thiadiazol-5-yl)}amine]", "Mean AC1.4": "D (D=>20 uM)"}, {"smiles": "COc1cccc(Cc2nsc(NCCc3ccccc3Cl)n2)c1", "note": "[[2-(2-chlorophenyl)ethyl]{3-[(3-methoxyphenyl)methyl](1,2,4-thiadiazol-5-yl)}amine]", "Mean AC1.4": "D (D=>20 uM)"}, {"smiles": "Fc1ccc(Cc2nsc(NCCc3ccccc3Cl)n2)cc1", "note": "[[2-(2-chlorophenyl)ethyl]{3-[(4-fluorophenyl)methyl](1,2,4-thiadiazol-5-yl)}amine]", "Mean AC1.4": "D (D=>20 uM)"}, {"smiles": "Cc1ccc(Cc2nsc(NCCc3ccccc3Cl)n2)cc1", "note": "[[2-(2-chlorophenyl)ethyl]{3-[(4-methylphenyl)methyl](1,2,4-thiadiazol-5-yl)}amine]", "Mean AC1.4": "D (D=>20 uM)"}, {"smiles": "COc1cccc(Cc2nsc(NCCc3ccc(Cl)c(Cl)c3)n2)c1", "note": "[[2-(3,4-dichlorophenyl)ethyl]{3-[(3-methoxyphenyl)methyl](1,2,4-thiadiazol-5-yl)}amine]", "Mean AC1.4": "B (B=1-10 uM)"}, {"smiles": "Clc1ccc(Cc2nsc(NCCc3ccc(Cl)c(Cl)c3)n2)cc1", "note": "[[2-(3,4-dichlorophenyl)ethyl]{3-[(4-chlorophenyl)methyl](1,2,4-thiadiazol-5-yl)}amine]", "Mean AC1.4": "C (C=10-20 uM)"}, {"smiles": "Cc1ccc(Cc2nsc(NCCc3ccc(Cl)c(Cl)c3)n2)cc1", "note": "[[2-(3,4-dichlorophenyl)ethyl]{3-[(4-methylphenyl)methyl](1,2,4-thiadiazol-5-yl)}amine]", "Mean AC1.4": "B (B=1-10 uM)"}, {"smiles": "COc1cccc(Cc2nsc(NCCc3ccc(F)c(F)c3)n2)c1", "note": "[[2-(3,4-difluorophenyl)ethyl]{3-[(3-methoxyphenyl)methyl](1,2,4-thiadiazol-5-yl)}amine]", "Mean AC1.4": "B (B=1-10 uM)"}, {"smiles": "Fc1ccc(Cc2nsc(NCCc3ccc(F)c(F)c3)n2)cc1", "note": "[[2-(3,4-difluorophenyl)ethyl]{3-[(4-fluorophenyl)methyl](1,2,4-thiadiazol-5-yl)}amine]", "Mean AC1.4": "C (C=10-20 uM)"}, {"smiles": "COc1cccc(Cc2nsc(NCCc3cc(F)cc(F)c3)n2)c1", "note": "[[2-(3,5-difluorophenyl)ethyl]{3-[(3-methoxyphenyl)methyl](1,2,4-thiadiazol-5-yl)}amine]", "Mean AC1.4": "D (D=>20 uM)"}, {"smiles": "COc1cccc(Cc2nsc(NCCc3cccc(Cl)c3)n2)c1", "note": "[[2-(3-chlorophenyl)ethyl]{3-[(3-methoxyphenyl)methyl](1,2,4-thiadiazol-5-yl)}amine]", "Mean AC1.4": "C (C=10-20 uM)"}, {"smiles": "Clc1ccc(Cc2nsc(NCCc3cccc(Cl)c3)n2)cc1", "note": "[[2-(3-chlorophenyl)ethyl]{3-[(4-chlorophenyl)methyl](1,2,4-thiadiazol-5-yl)}amine]", "Mean AC1.4": "D (D=>20 uM)"}]}, {"tested_on": "rabbit skeletal myofibrils (approximately 90% fast fibers)", "assay": "Activation of fast skeletal myofibrils (PUMA coupled-enzyme ATPase assay, AC1.4)", "type": "biochemical", "settings": "Table 3; concentration at which the compound increased enzymatic activity by 40%; calcium at pCa25", "values": [{"smiles": "Cc1ccc(-c2nnc(NCC3(c4ncccc4F)CCC3)s2)cc1", "note": "[N-((1-(3-fluoropyridin-2-yl)cyclobutyl)methyl)-5-p-tolyl-1,3,4-thiadiazol-2-amine]", "Mean AC1.4": "B (B=1-10 uM)"}, {"smiles": "Fc1cccnc1C1(CNc2nnc(-c3ccccc3)s2)CCC1", "note": "[N-((1-(3-fluoropyridin-2-yl)cyclobutyl)methyl)-5-phenyl-1,3,4-thiadiazol-2-amine]", "Mean AC1.4": "A (A=<1 uM)"}, {"smiles": "Cn1cc(-c2nnc(NC[C@]3(c4ncccc4F)C[C@H](F)C3)s2)cn1", "note": "[N-((3-fluoro-1-(3-fluoropyridin-2-yl)cyclobutyl)methyl)-5-(1-methyl-1H-pyrazol-4-yl)-1,3,4-thiadiazol-2-amine]", "Mean AC1.4": "D (D=>20 uM)"}, {"smiles": "Cn1nccc1-c1nnc(NC[C@]2(c3ncccc3F)C[C@H](F)C2)s1", "note": "[N-((3-fluoro-1-(3-fluoropyridin-2-yl)cyclobutyl)methyl)-5-(1-methyl-1H-pyrazol-5-yl)-1,3,4-thiadiazol-2-amine]", "Mean AC1.4": "D (D=>20 uM)"}, {"smiles": "Cc1ccc(F)c(-c2nnc(NC[C@]3(c4ncccc4F)C[C@H](F)C3)s2)c1", "note": "[N-((3-fluoro-1-(3-fluoropyridin-2-yl)cyclobutyl)methyl)-5-(2-fluoro-5-methylphenyl)-1,3,4-thiadiazol-2-amine]", "Mean AC1.4": "A (A=<1 uM)"}, {"smiles": "C=Cc1ccc(F)c(-c2nnc(NC[C@]3(c4ncccc4F)C[C@H](F)C3)s2)c1", "note": "[N-((3-fluoro-1-(3-fluoropyridin-2-yl)cyclobutyl)methyl)-5-(2-fluoro-5-vinylphenyl)-1,3,4-thiadiazol-2-amine]", "Mean AC1.4": "A (A=<1 uM)"}, {"smiles": "Fc1ccccc1-c1nnc(NC[C@]2(c3ncccc3F)C[C@H](F)C2)s1", "note": "[N-((3-fluoro-1-(3-fluoropyridin-2-yl)cyclobutyl)methyl)-5-(2-fluorophenyl)-1,3,4-thiadiazol-2-amine]", "Mean AC1.4": "A (A=<1 uM)"}, {"smiles": "CSc1ncc(C)c(-c2nnc(NC[C@]3(c4ncccc4F)C[C@H](F)C3)s2)n1", "note": "[N-((3-fluoro-1-(3-fluoropyridin-2-yl)cyclobutyl)methyl)-5-(5-methyl-2-(methylthio)pyrimidin-4-yl)-1,3,4-thiadiazol-2-amine]", "Mean AC1.4": "B (B=1-10 uM)"}, {"smiles": "Fc1cccnc1[C@]1(CNc2nnc(-c3ccon3)s2)C[C@@H](F)C1", "note": "[N-((3-fluoro-1-(3-fluoropyridin-2-yl)cyclobutyl)methyl)-5-(isoxazol-3-yl)-1,3,4-thiadiazol-2-amine]", "Mean AC1.4": "C (C=10-20 uM)"}, {"smiles": "Fc1cccnc1[C@]1(CNc2nnc(-c3ccccn3)s2)C[C@@H](F)C1", "note": "[N-((3-fluoro-1-(3-fluoropyridin-2-yl)cyclobutyl)methyl)-5-(pyridin-2-yl)-1,3,4-thiadiazol-2-amine]", "Mean AC1.4": "B (B=1-10 uM)"}, {"smiles": "Cc1ccsc1-c1nnc(NC[C@]2(c3ncccc3F)C[C@@H](F)C2)s1", "note": "[N-(((cis)-3-fluoro-1-(3-fluoropyridin-2-yl)cyclobutyl)methyl)-5-(3-methylthiophen-2-yl)-1,3,4-thiadiazol-2-amine]", "Mean AC1.4": "B (B=1-10 uM)"}, {"smiles": "Cc1ccc(-c2nnc(NC[C@]3(c4ncccc4F)C[C@@H](F)C3)s2)s1", "note": "[N-(((cis)-3-fluoro-1-(3-fluoropyridin-2-yl)cyclobutyl)methyl)-5-(5-methylthiophen-2-yl)-1,3,4-thiadiazol-2-amine]", "Mean AC1.4": "D (D=>20 uM)"}, {"smiles": "Cc1ccsc1-c1nnc(NC[C@]2(c3ncccc3F)C[C@H](F)C2)s1", "note": "[N-(((trans)-3-fluoro-1-(3-fluoropyridin-2-yl)cyclobutyl)methyl)-5-(3-methylthiophen-2-yl)-1,3,4-thiadiazol-2-amine]", "Mean AC1.4": "B (B=1-10 uM)"}, {"smiles": "Cc1ccc(-c2nnc(NC[C@]3(c4ncccc4F)C[C@H](F)C3)s2)s1", "note": "[N-(((trans)-3-fluoro-1-(3-fluoropyridin-2-yl)cyclobutyl)methyl)-5-(5-methylthiophen-2-yl)-1,3,4-thiadiazol-2-amine]", "Mean AC1.4": "B (B=1-10 uM)"}]}, {"tested_on": "rabbit skeletal myofibrils (approximately 90% fast fibers)", "assay": "Activation of fast skeletal myofibrils (PUMA coupled-enzyme ATPase assay, AC1.4)", "type": "biochemical", "settings": "Table 4; concentration at which the compound increased enzymatic activity by 40%; calcium at pCa25", "values": [{"smiles": "Fc1cccnc1C1(CNc2nc3ccccc3s2)CCC1", "note": "[N-((1-(3-fluoropyridin-2-yl)cyclobutyl)methyl)benzo[d] thiazol-2-amine]", "Mean AC1.4": "C (C=10-20 uM)"}]}, {"tested_on": "rabbit skeletal myofibrils (approximately 90% fast fibers)", "assay": "Activation of fast skeletal myofibrils (PUMA coupled-enzyme ATPase assay, AC1.4)", "type": "biochemical", "settings": "Table 5; concentration at which the compound increased enzymatic activity by 40%; calcium at pCa25", "values": [{"smiles": "Fc1cccnc1C1(CNc2noc(-c3ccccc3)n2)CCC1", "note": "[N-((1-(3-fluoropyridin-2-yl)cyclobutyl)methyl)-5-phenyl-1,2,4-oxadiazol-3-amine]", "Mean AC1.4": "D (D=>20 uM)"}, {"smiles": "Fc1cccnc1C1(CNc2nnc(-c3ccccc3)o2)CCC1", "note": "[N-((1-(3-fluoropyridin-2-yl)cyclobutyl)methyl)-5-phenyl-1,3,4-oxadiazol-2-amine]", "Mean AC1.4": "D (D=>20 uM)"}, {"smiles": "Fc1cccnc1C1(CNc2ncc(-c3ccccc3)s2)CCC1", "note": "[N-((1-(3-fluoropyridin-2-yl)cyclobutyl)methyl)-5-phenylthiazol-2-amine]", "Mean AC1.4": "A (A=<1 uM)"}]}]}
